In doi:10.1101/116368v1 (biorxiv, 2017) one finds Kd data, which are given here for two molecules.

The structures appear in SMILES notation.

The test has as its target T1, STARD1 (StAR), STARD1^S195E, residues 66-285 (Homo sapiens, UniProt P49675, S195E).
T1 sequence (P49675 66-285 S195E): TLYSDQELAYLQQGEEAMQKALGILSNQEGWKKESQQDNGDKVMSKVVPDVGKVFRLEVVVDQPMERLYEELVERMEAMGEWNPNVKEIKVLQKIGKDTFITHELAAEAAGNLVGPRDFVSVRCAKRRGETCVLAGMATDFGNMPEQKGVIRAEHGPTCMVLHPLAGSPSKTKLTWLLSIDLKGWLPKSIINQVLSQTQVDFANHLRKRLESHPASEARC
Briefly: NBD fluorescence titration, quadratic fit. The class given is binding.

By Kd is commonly meant the free concentration of one partner at which half of the binding sites on the other are occupied at equilibrium, for simple one-to-one binding. A low value points to higher affinity. The molecule `CC(C)CCC[C@@H](C)[C@H]1CC[C@H]2[C@@H]3CCC4CC(Nc5ccc([N+](=O)[O-])c6nonc56)CC[C@]4(C)[C@H]3CC[C@]12C` (some centres unmarked) [3NC, 3-(NBDamino)-cholestane] yielded a Kd of 302 ± 29 nM.
The same measure for `CC(Nc1ccc([N+](=O)[O-])c2nonc12)[C@H]1CC[C@H]2[C@@H]3CC=C4C[C@@H](O)CC[C@]4(C)[C@H]3CC[C@]12C` (some centres unmarked) [20NP, 20-((NBDamino)-pregn-5-en-3-ol]: 26 ± 8 nM.
